Experimental data as given in patent publication US20250145588A1, “CRYSTAL FORM OF TAVAPADON, AND PREPARATION METHOD THEREFOR AND USE THEREOF” (CRYSTAL PHARMACEUTICAL (SUZHOU) CO., LTD., priority 2022, published 2025).
Entries after “also recorded” stand apart in the source; their conditions may differ.

Tests used:
Type in all cases: physicochemical
[1] = Storage stability of solid forms (crystalline form by XRPD, chemical purity by HPLC); details: for Purity after storage: HPLC
Protocol: XRPD patterns in the present disclosure were acquired by a Bruker X-ray powder diffractometer. The parameters of the X-ray powder diffraction method of the present disclosure are as follows: • X-Ray source: Cu, Kα • Kα1 (Å): 1.54060; Kα2 (Å): 1.54439 • Kα2/Kα1 intensity ratio: 0.50
A certain amount of the prior art solid obtained in Example 4 was packaged with sealed container (with desiccant inside), and stored under 40° C./75% RH. The solid form before and after storage was confirmed by XRPD.
A certain amount of Form CSI was packaged with corresponding package conditions, and then stored under 25° C./60% RH, 40° C./75% RH and 60° C./75% RH. Crystalline form and chemical purity were checked by XRPD and HPLC, respectively. Form CSI kept stable for at least 6 months when stored at 25° C./60% RH open and sealed (with desiccants) package, 40° C./75% RH open and sealed (with desiccants) package, and 60° C./75% RH sealed (with desiccants) package.
A certain amount of Form CSII sample was packaged with corresponding package conditions, and then stored at 25° C./60% RH and 40° C./75% RH. Crystalline form was checked by XRPD. Form CSII kept stable for at least 1 month for both open and sealed (with desiccants) package conditions at 25° C./60% RH and 40° C./75% RH.

[2] = Physical stability upon mechanical force (ball-milling, XRPD before and after grinding); details: 500 rpm, 5 minutes
Protocol: Form CSI was ground using a ball-milling at a vibration speed of 500 rpm for 5 minutes.
Form CSII was ground using a ball-milling at a vibration speed of 500 rpm for 5 minutes.

[3] = Hygroscopicity and humidity stability by DVS (0% RH-95% RH-0% RH cycle at 25° C., XRPD before and after); details: for Hygroscopicity (in words) / Weight gain (water uptake) at 80% RH: DVS; for Form change after DVS test (humidity stability): one cycle 0% RH-95% RH-0% RH, XRPD
Protocol: DVS data in the present disclosure were measured via an SMS (Surface Measurement Systems Ltd.) intrinsic DVS instrument. The instrument control software is DVS-Intrinsic control software. Typical Parameters for DVS test are as follows: • Temperature: 25° C. • Gas and flow rate: N2, 200 mL/minRH range: 0% RH to 95% RH
The hygroscopicity of Form CSI was determined by a DVS instrument with a certain amount of sample. The mass at each relative humidity was recorded during a cycle of 0% RH-95% RH-0% RH at 25° C., and XRPD was collected before and after DVS test.
The hygroscopicity of Form CSII was determined by DVS instrument with a certain amount of sample. The mass at each relative humidity was recorded during the cycle of 0% RH-95% RH-0% RH at 25° C., and XRPD was tested before and after DVS.

## Cc1cc(Oc2ncccc2C(F)(F)F)ccc1-c1c(C)c(=O)[nH]c(=O)n1C [prior art solid, reference compound]
[1]; 40° C./75% RH, sealed container with desiccant, 10 days, XRPD
  Solid form change after storage: undergoes crystal transformation; also recorded: undergoes crystalline transformation

## Cc1cc(Oc2ncccc2C(F)(F)F)ccc1-c1c(C)c(=O)[nH]c(=O)n1C (single isomer, unassigned) [Form CSII]
[1]; 25° C./60% RH, sealed (with desiccants), 1 month, XRPD
  Solid form after storage: Form CSII
[1]; 40° C./75% RH, sealed (with desiccants), 1 month, XRPD
  Solid form after storage: remains unchanged; also recorded: Form CSII
[1]; open and sealed (with desiccants) package at 25° C./60% RH and 40° C./75% RH
  Time kept stable on storage: at least 1 month
[2]
  Form change after grinding: no form change; also recorded: doesn't change after grinding
[3]
  Hygroscopicity (in words): almost non hygroscopic
  Weight gain (water uptake) at 80% RH: 0.19%
  Form change after DVS test (humidity stability): No form change; also recorded: remains unchanged

## Cc1cc(Oc2ncccc2C(F)(F)F)ccc1-c1c(C)c(=O)[nH]c(=O)n1C (single isomer, unassigned) [Form CSI]
[1]; 25° C./60% RH open and sealed (with desiccants), 40° C./75% RH open and sealed (with desiccants), 60° C./75% RH sealed (with desiccants)
  Time kept stable on storage: at least 6 months
[1]; 25° C./60% RH, open, 6 months
  Purity after storage: 99.85%
[1]; 25° C./60% RH, open, 6 months, XRPD
  Solid form after storage: Form CSI
[1]; 25° C./60% RH, sealed (with desiccants), 6 months
  Purity after storage: 99.85%
[1]; 25° C./60% RH, sealed (with desiccants), 6 months, XRPD
  Solid form after storage: Form CSI
[1]; 40° C./75% RH
  Time remaining unchanged on storage: at least 6 months
[1]; 40° C./75% RH, open, 6 months
  Purity after storage: 99.85%
[1]; 40° C./75% RH, open, 6 months, XRPD
  Solid form after storage: Form CSI
[1]; 40° C./75% RH, sealed (with desiccants), 6 months
  Purity after storage: 99.85%
[1]; 40° C./75% RH, sealed (with desiccants), 6 months, XRPD
  Solid form after storage: Form CSI
[1]; 60° C./75% RH, sealed (with desiccants), 6 months
  Purity after storage: 99.85%
[1]; 60° C./75% RH, sealed (with desiccants), 6 months, XRPD
  Solid form after storage: Form CSI
[1]; 60° C./75% RH, sealed package
  Time remaining unchanged on storage: at least 6 months
[2]
  Form change after grinding: no form change; also recorded: doesn't change after grinding
[3]
  Hygroscopicity (in words): almost non hygroscopic
  Weight gain (water uptake) at 80% RH: 0.05%
  Form change after DVS test (humidity stability): No form change; also recorded: remains unchanged
